Data on 8 compounds can be found in paper PMC3894963, “Expression and Functional Characterization of Membrane-Integrated Mammalian Corticotropin Releasing Factor Receptors 1 and 2 in Escherichia coli” (PLoS ONE, 2014).

“Also recorded” adds a separate entry of the source. Ends that are not written are not given here.

For assay [1], the target named is T1, hCRFR1α (Homo sapiens, UniProt P34998).
T1 construct: The cDNAs encoding full-length mature forms of hCRFR1α and mCRFR2β were introduced into pET-26b plasmid; made in house; host or cells: E. coli (membrane fraction)
T1 sequence (P34998 24-415): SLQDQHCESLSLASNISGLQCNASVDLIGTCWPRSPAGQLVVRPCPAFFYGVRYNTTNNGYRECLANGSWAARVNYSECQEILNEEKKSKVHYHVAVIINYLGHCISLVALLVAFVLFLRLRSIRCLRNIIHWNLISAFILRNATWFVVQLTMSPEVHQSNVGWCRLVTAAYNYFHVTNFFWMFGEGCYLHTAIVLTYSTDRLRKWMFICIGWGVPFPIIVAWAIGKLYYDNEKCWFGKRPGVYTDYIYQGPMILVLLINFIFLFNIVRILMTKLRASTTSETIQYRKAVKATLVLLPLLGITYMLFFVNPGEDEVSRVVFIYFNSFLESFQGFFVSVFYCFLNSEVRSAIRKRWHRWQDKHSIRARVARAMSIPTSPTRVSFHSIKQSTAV
Description: Competitive displacement of labeled PD-sauvagine, hCRFR1α in E. coli membranes. The class given is binding. The conditions noted are these: E. coli membranes (Figure 14). On the procedure:
Each assay included at least triplicate wells for each concentration, and the assays were repeated at least twice (except where indicated).
(§1) The saturation and competitive binding experiments are analyzed by non-linear regression with the GraphPad Prism program (www.graphpad.com) assuming binding to a single site. Specifically, for saturation binding experiments, binding is determined as a function of increasing concentrations of radioligand. The equation used is y = {(Bmax)^.[radioligand]}/{Kd+[radioligand]}, where y = the specific binding (i.e., total binding-non-specific binding). Competitive binding experiments use a constant concentration of radioligand together with increasing concentrations of competitor. […] Because [radioligand] is <Kd, the Ki = EC50. For multiple determinations, Log (EC50) values were averaged to calculate the values in Table 1. […] In Table 1, the inhibition constant (Ki) values are shown together with the standard error and ranges, calculated assuming log normal distribution.

The test system of a further assay is CRFR1. Details: method as in PMID 9415408. The conditions noted are these: CRFR1 in mammalian cells; cited from earlier work.
The target in assay [2] is T2, mCRFR2β (Mus musculus, UniProt Q60748).
T2 construct: mCRFR2β(Val25-C-term) - PhoA; made in house; host or cells: E. coli (membrane fraction)
Description: Competitive displacement of labeled astressin, mCRFR2β in E. coli membranes. The class given is binding. The conditions noted are these: for Displacement of bound labeled astressin: mCRFR2β, E. coli membranes (Figure 11B). As to the method: as §1, with “The incubation was performed at room temp for 90-120 min, at which time the plates were aspirated and each well was washed with 2×100 μl assay buffer, dried and counted in a γ-counter. Each assay included at least triplicate wells for each concentration, and the assays were repeated at least twice (except where indicated). […] The saturation” for “The saturation”

In assay [3] the target is T1, hCRFR1α. The assay is described as follows: Binding of labeled sauvagine, hCRFR1α in E. coli. To be noted: hCRFR1α expressed in E. coli, [^125I-Tyr^0,Glu^1,Nle^17]-sauvagine. As to the method:
(§2) The incubation was performed at room temp for 90–120 min, at which time the plates were aspirated and each well was washed with 2×100 µl assay buffer, dried and counted in a γ-counter. Each assay included at least triplicate wells for each concentration, and the assays were repeated at least twice (except where indicated).

Assay [4] addresses T2, mCRFR2β. The assay is described as follows: Binding of labeled sauvagine, mCRFR2β in E. coli. To be noted: mCRFR2β expressed in E. coli, [^125I-Tyr^0,Glu^1,Nle^17]-sauvagine. As to the method: as §2
The target of assay [5] is T1, hCRFR1α. The assay is described as follows: Saturation binding of labeled PD-sauvagine, hCRFR1α in E. coli membranes. On the procedure:
as §1, with “The incubation was performed at room temp for 90-120 min, at which time the plates were aspirated and each well was washed with 2×100 μl assay buffer, dried and counted in a γ-counter. Each assay included at least triplicate wells for each concentration, and the assays were repeated at least twice (except where indicated). […] The saturation” for “The saturation”

Assay [6] concerns the target T2, mCRFR2β. Description: Saturation binding of labeled PD-sauvagine, mCRFR2β in E. coli membranes. On the procedure:
as §1, with “The incubation was performed at room temp for 90-120 min, at which time the plates were aspirated and each well was washed with 2×100 μl assay buffer, dried and counted in a γ-counter. Each assay included at least triplicate wells for each concentration, and the assays were repeated at least twice (except where indicated). […] The saturation” for “The saturation”

In assay [7] the target is T1, hCRFR1α. The assay is described as follows: Binding of labeled Ucn1, hCRFR1α in E. coli. To be noted: data not shown.
Assay [8] concerns the target T2, mCRFR2β. Description: Binding of labeled Ucn1, mCRFR2β in E. coli. To be noted: data not shown.
For a further assay, the system named is CRFR1 / CRFR2. The conditions noted are these: introduction; cited from earlier work. From the text: In most vertebrates there are two highly conserved tissue-specifically expressed CRFRs, designated type 1 [15] and type 2 [16], encoded by different genes and approximately 70% identical to each other at the amino acid level. CRFR1 is relatively more abundant in the nervous system, including the pituitary, while CRFR2 is particularly expressed in the heart, skeletal muscle, and gastrointestinal tract. […] The main type 1 isoform in human, ra ...

Assay [9] deals with T1, hCRFR1α. Description: Competitive displacement of labeled astressin, hCRFR1α in E. coli membranes. In kind it is binding. To be noted: E. coli membranes (Figure 11A). As to the method: as §1, with “The incubation was performed at room temp for 90-120 min, at which time the plates were aspirated and each well was washed with 2×100 μl assay buffer, dried and counted in a γ-counter. Each assay included at least triplicate wells for each concentration, and the assays were repeated at least twice (except where indicated). […] The saturation” for “The saturation”

A further assay concerns ECD-1s of the CRFRs. To be noted: cited from earlier work. The text has this:
Further, the CRFRs' coupling to G-proteins in mammalian cells is important for the high affinity binding of agonists, such as sauvagine and CRF, ...

[10] abbreviates: listed as labeled agonist sauvagine.
The mark [11] stands for this setting: labeled PD-sauvagine versus labeled astressin, printed with ref [55].
Setting [12] is: nanomolar concentrations, Kd not determined (Figure S3).

T2 sequence (Q60748 25-431 isoform Q60748-2): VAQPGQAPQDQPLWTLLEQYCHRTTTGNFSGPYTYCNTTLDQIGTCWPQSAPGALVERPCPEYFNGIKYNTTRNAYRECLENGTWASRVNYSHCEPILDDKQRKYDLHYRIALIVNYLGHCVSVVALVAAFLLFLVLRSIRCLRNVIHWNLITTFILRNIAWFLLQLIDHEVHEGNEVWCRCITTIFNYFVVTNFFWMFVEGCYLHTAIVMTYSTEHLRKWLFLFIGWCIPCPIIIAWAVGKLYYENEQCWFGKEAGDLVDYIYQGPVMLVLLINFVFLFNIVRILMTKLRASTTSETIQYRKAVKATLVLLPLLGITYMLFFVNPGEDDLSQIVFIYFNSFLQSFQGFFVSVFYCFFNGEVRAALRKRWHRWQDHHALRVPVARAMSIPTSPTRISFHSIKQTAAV

Regarding `CCCCN(CC)c1nc(C)nc2c1c(C)c(C)n2-c1c(C)cc(C)cc1C` [antalarmin], at hCRFR1α [1], the “Displacement of bound labeled PD-sauvagine” value was “displaces labeled PD-sauvagine bound to hCRFR1α (Figure 14) in a dose dependent manner; also recorded: competitively displaces labeled PD-sauvagine bound to a small percentage of the hCRFR1α expressed in E. coli membranes”. Besides, the “Binding site” value in the assay with CRFR1 is “binds to a site defined by residues in transmembrane domains 3 and 5 of CRFR1”.

For orientation: Ki means the dissociation constant of the complex between target and ligand, obtained from inhibition or displacement. `CC[C@H](C)[C@H](NC(=O)[C@H](CO)NC(=O)[C@H](CC(C)C)NC(=O)[C@@H]1CCCN1C(=O)[C@@H]1CCCN1C(=O)[C@H](CC(=O)O)NC(=O)[C@@H](N)CC(=O)O)C(=O)N[C@@H](CC(=O)O)C(=O)N[C@@H](CC(C)C)C(=O)N[C@H](C(=O)N[C@@H](Cc1ccccc1)C(=O)N[C@@H](Cc1c[nH]cn1)C(=O)N[C@@H](CC(C)C)C(=O)N[C@@H](CC(C)C)C(=O)N[C@@H](CCCNC(=N)N)C(=O)N[C@H](C(=O)N[C@@H](CC(C)C)C(=O)N[C@@H](CC(C)C)C(=O)N[C@@H](CCC(=O)O)C(=O)N[C@@H](CC(C)C)C(=O)N[C@@H](C)C(=O)N[C@@H](CCCNC(=N)N)C(=O)N[C@H](C(=O)N[C@@H](CCC(N)=O)C(=O)N[C@@H](CO)C(=O)N[C@@H](CCC(N)=O)C(=O)N[C@@H](CCCNC(=N)N)C(=O)N[C@@H](CCC(=O)O)C(=O)N[C@@H](CCCNC(=N)N)C(=O)N[C@@H](C)C(=O)N[C@@H](CCC(=O)O)C(=O)N[C@@H](CCC(N)=O)C(=O)N[C@@H](CC(N)=O)C(=O)N[C@@H](CCCNC(=N)N)C(=O)N[C@H](C(=O)N[C@H](C(=O)N[C@@H](Cc1ccccc1)C(=O)N[C@@H](CC(=O)O)C(=O)N[C@@H](CO)C(=O)N[C@H](C(N)=O)C(C)C)[C@@H](C)CC)[C@@H](C)CC)[C@@H](C)O)[C@@H](C)O)[C@@H](C)O` [rUcn1]: the Ki on mCRFR2β [2] (read-out: Inhibitory binding constant (Ki)) was determined as 11.5 nM.

Take “[^125I-Tyr^0,Glu^1,Nle^17]-sauvagine [labeled sauvagine]”: the “Binding of labeled sauvagine” value is on record as “fail to bind labeled sauvagine” at hCRFR1α [3], “do not bind the labeled agonist sauvagine” on hCRFR1α [3] (setting [10]), “fail to bind labeled sauvagine” on mCRFR2β [4] and “do not bind the labeled agonist sauvagine” at mCRFR2β [4] (setting [10]).

In the case of “[^125I-Tyr^0,Glu^1]PD-sauvagine [labeled PD-sauvagine]”, the “Binding of labeled PD-sauvagine” value on hCRFR1α [5] was “do bind the other labeled agonist, PD-sauvagine”; on mCRFR2β [6], “do bind the other labeled agonist, PD-sauvagine”. Moreover, the “Number of sites detected” value at hCRFR1α [5] (setting [11]) and on mCRFR2β [6] (setting [11]) was “less than that detected by labeled astressin” each time. The “Saturation of binding” value on hCRFR1α [5] (setting [12]) and on mCRFR2β [6] (setting [12]) was “at nanomolar concentrations the binding did not saturate” each time.

For the compound “labeled Ucn1: labeled Ucn1, binding data not shown (DNPSLSIDLTFHLLRTLLELARTQSQRERAEQNRIIFDSV; ends and bridges not checked; also: labeled (label not given here); UniProt P55089 83-122, looked up)”, the “Binding of labeled Ucn1” value with hCRFR1α [7] and with mCRFR2β [8] was “observed binding of labeled Ucn1 to the receptors” throughout.

Consider “mUcn3: CRFR2-selective ligand, mouse (FTLSLDVPTNIMNILFNIDKAKNLRAKAAANAQLMAQI; ends and bridges not checked; UniProt Q924A4 123-160, looked up)”, for which the “Relative affinity for CRFR1 and CRFR2” value in the assay on CRFR1 / CRFR2 is reported as “selective for CRFR2”. In addition, the “Displacement of bound labeled astressin” value in the assay with mCRFR2β [2] is recorded as “does not compete for binding to mCRFR2β”.

As to “r/hCRF: CRF is a 41-amino acid (aa) peptide synthesized in the hypothalamus”, the “Relative affinity for CRFR1 and CRFR2” value with CRFR1 / CRFR2 is “tenfold higher affinity for CRFR1 than for CRFR2”.

On to sauvagine, for which the “Displacement of bound labeled astressin” value on hCRFR1α [9] and on mCRFR2β [2] was “does not displace labeled astressin bound to either receptor” in each case. Besides, the “Binding to ECD-1s” value in the assay on ECD-1s of the CRFRs is recorded as “does not bind to the isolated ECD-1s”.
